{
  "source": "patent US11433082B2",
  "about": "“Composition containing sulfoalkyl ether cyclodextrin and latanoprost” (CyDex Pharmaceuticals, Inc., priority 2008, dated 2022)",
  "format_in_all_cases": "physicochemical",
  "key": {"[1]": {"assay": "Photolytic (UV-B) stability of aqueous compositions of latanoprost", "conditions": "SAE-CD 1% or 5% w/v, pH 6.7, UV-B, compared to a solution excluding SAE-CD", "protocol": "Latanoprost was measured in weighing boats (size 4×12×4 mm) by using a microbalance. The boats were put into 50 mL volumetric flask and 100 mM isotonic phosphate buffer (pH 6.7) was added to the flask. The flask was shaken, sonicated and vortexed over an hour. The solution was filtered through a PVDF filter with 20 mL of plastic syringe. SBE-β-CD 0, 1, 5% w/v and BAK 0.02% w/v were measured into each 10 mL volumetric flask and the filtered latanoprost solution were added to them. The flasks were shaken for a few minutes at R.T, and then these solutions and XALATAN® were put into quartz vessels. The Rayonet photochemical chamber reactor was used for the irradiation with RMR-3000A lamp. At various time points, the latanoprost in the aliquots was assayed by HPLC, and the solution pH's were measured before and after the light irradiation."}, "[2]": {"assay": "Hydrolytic stability of aqueous compositions of latanoprost at 60° C.", "conditions": "compared to a solution excluding SAE-CD", "protocol": "Latanoprost was measured in weighting boats (size 4×12×4 mm) by using a microbalance. The boats were put into 50 mL volumetric flask and 10 mM or 100 mM isotonic phosphate buffer (pH 5.5, 6.7 and 8.0) was added to the flask. The flask was shaken, sonicated and vortexed over an hour. The solution was filtered through a PVDF filter with 20 mL of plastic syringe. SBE-β-CyD 0, 1, 2.5, 5% w/v or BAK 0.02% were measured into 6-dram amber vials, and the filtered latanoprost solution (12 mL) was added to each vials. The vials were shaken for a few minutes at R.T, and then there were kept at 60° C. At various time points, the latanoprost in the aliquots was assayed by HPLC and the solution pH's were measured."}, "[3]": {"assay": "Phase solubility of latanoprost in the presence of SBE-β-CD (CAPTISOL)", "conditions": "for pH: filtered supernatant", "protocol": "SAE-CD increases the aqueous solubility of latanoprost. The phase solubility curve (FIG. 1) for latanoprost in the presence of SBE-β-CD (CAPTISOL®) was obtained according to Example 5. The intrinsic solubility of latanoprost in water, and in the absence of any solubilizing agent, is about 40 μg/mL. The invention provides a method of increasing the solubility of latanoprost in an aqueous composition, the method comprising including SAE-CD and latanoprost in the aqueous composition, wherein the molar ratio of SAE-CD to latanoprost, pH, concentration of SAE-CD, and concentration of latanoprost are as defined herein. In some embodiments, the SAE-CD increases the aqueous solubility of latanoprost by at least 10-fold.\nAqueous compositions containing latanoprost and different amounts of SBE-β-CD were prepared. Latanoprost (1 mg was measured into aluminum weighing boats (size 4×12×4 mm) by using a microbalance. The boats were put into the amber glass vials (Kimble vial, 1 dram) with Teflon-lined screw caps. Using a Rainin pipetman, 2.0 mL of SBE-β-CD test solution (0, 5, 10, or 20% w/v) were added to each vial. Each vial was capped, vortexed, placed on a rocker platform and gently mixed at room temperature. After 24 hours, the test vials were removed from the rocker platform, the solutions were centrifuged at 2500 rpm for 5 min, and the supernatants were filtered through 0.22 micron Millipore PVDF Millex-GV filters and the pH measured. The latanoprost in the aliquots was assayed by HPLC."}},
  "note": "Where two headings read alike, the source gives them in different places.",
  "data": [
    {"smiles": "CC(C)OC(=O)CCC/C=C\\C[C@@H]1[C@@H](CC[C@@H](O)CCc2ccccc2)[C@H](O)C[C@@H]1O", "note": "[Latanoprost, isopropyl (Z)-7-[(1R,2R,3R,5S)-3,5-dihydroxy-2-[(3R)3-hydroxy-5-phenylpentyl]-cyclopentyl]hept-5-enoate]", "values": [
      {"measurement": "photolytic degradation of latanoprost", "setting": "[1]", "result": "sufficient to suppress photolytic degradation"},
      {"measurement": "hydrolytic degradation of latanoprost", "setting": "[2]; SAE-CD 1% or 5% w/v, pH 5.5 and 6.7, 60° C.", "result": "sufficient to suppress hydrolytic degradation"},
      {"measurement": "hydrolytic degradation of latanoprost", "setting": "[2]; SAE-CD, pH 8, 60° C.", "result": "substantially reduce hydrolytic degradation"},
      {"measurement": "solubility at 24 h", "setting": "[3]; aqueous 5% w/v SBE-β-CD (CAPTISOL) solution, pH 7.41, aqueous with cosolvent or surfactant or cyclodextrin, thermodynamic from solid, with 5% w/v CAPTISOL, room temperature, 24 hours, read-out: Latanoprost (solubility)", "result": "> 500", "unit": "µg/mL"},
      {"measurement": "solubility at 24 h", "setting": "[3]; aqueous 10% w/v SBE-β-CD (CAPTISOL) solution, pH 6.93, aqueous with cosolvent or surfactant or cyclodextrin, thermodynamic from solid, with 10% w/v CAPTISOL, room temperature, 24 hours, read-out: Latanoprost (solubility)", "result": "> 500", "unit": "µg/mL"},
      {"measurement": "solubility at 24 h", "setting": "[3]; aqueous SBE-β-CD (SAE-CD, CAPTISOL) solution, aqueous with cosolvent or surfactant or cyclodextrin, thermodynamic from solid, solutions containing at least 5% w/v of SAE-CD, read-out: solubility of latanoprost", "result": "> 500", "unit": "µg/mL"},
      {"measurement": "solubility at 24 h", "setting": "[3]; aqueous test solution without SBE-β-CD (0% w/v), pH 8.57, water, thermodynamic from solid, without CAPTISOL, room temperature, 24 hours, read-out: Latanoprost (solubility)", "result": 40, "unit": "µg/mL"},
      {"measurement": "pH", "setting": "[3]; with 5% w/v CAPTISOL", "result": 7.41},
      {"measurement": "pH", "setting": "[3]; with 10% w/v CAPTISOL", "result": 6.93},
      {"measurement": "pH", "setting": "[3]; without CAPTISOL", "result": 8.57},
      {"measurement": "solubility", "setting": "[3]; water, thermodynamic from solid, in the absence of any solubilizing agent, read-out: intrinsic solubility of latanoprost in water", "result": "~40", "unit": "µg/mL"}
    ]}
  ]
}
